Test results reported in the supplement of paper PMC10307832.

Experiments:
Assay in all cases: relative viability (nuclei count vs DMSO), 5 days (fraction); higher = more cells survive
[1] = compound: CN(C)C[C@@H]1CCn2cc(c3ccccc32)C2=C(C(=O)NC2=O)c2cn(c3ccccc23)CCO1 [Ruboxistaurin] + CC(=O)Nc1cccc(-n2c(=O)n(C3CC3)c(=O)c3c(Nc4ccc(I)cc4F)n(C)c(=O)c(C)c32)c1 [Trametinib] (partner 0.02 µM)
In short: (§1)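 One day after seeding in 1536-well plates, lung cancer cell lines were dosed by pin tool. Dosing was either single-drug or a fixed anchor-drug dose plus five library-drug doses (not always all listed) in √10 steps. After 5 days, nuclei were stained in one fix-and-stain step and counted on 4× images, and relative viability is the nuclei count of treated wells over that of vehicle wells, given as the median of duplicate plates.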

[2] = compound: CN(C)C[C@@H]1CCn2cc(c3ccccc32)C2=C(C(=O)NC2=O)c2cn(c3ccccc23)CCO1 [Ruboxistaurin] + CC(=O)c1c(C)c2cnc(Nc3ccc(N4CCNCC4)cn3)nc2n(C2CCCC2)c1=O [Palbociclib] (partner 0.5 µM)
In short: as §1

[3] = compound: CN(C)C[C@@H]1CCn2cc(c3ccccc32)C2=C(C(=O)NC2=O)c2cn(c3ccccc23)CCO1 [Ruboxistaurin] + Cc1cc(Nc2cc(N3CCN(C)CC3)nc(Sc3ccc(NC(=O)C4CC4)cc3)n2)n[nH]1 [Tozasertib] (partner 0.1 µM)
In short: as §1

[4] = compound: CN(C)C[C@@H]1CCn2cc(c3ccccc32)C2=C(C(=O)NC2=O)c2cn(c3ccccc23)CCO1 [Ruboxistaurin] + Cc1nc(Nc2ncc(C(=O)Nc3c(C)cccc3Cl)s2)cc(N2CCN(CCO)CC2)n1 [Dasatinib] (partner 0.075 µM)
In short: as §1

Ruboxistaurin + AZD7762 = compound: CN(C)C[C@@H]1CCn2cc(c3ccccc32)C2=C(C(=O)NC2=O)c2cn(c3ccccc23)CCO1 [Ruboxistaurin] + NC(=O)Nc1cc(-c2cccc(F)c2)sc1C(=O)N[C@H]1CCCNC1 [AZD7762] (partner 0.2 µM)
In short: as §1

Cell Line	relative viability ([1]; first compound 0.08 µM)	relative viability ([1]; first compound 0.8 µM)	relative viability ([1]; first compound 2.53 µM)	relative viability ([1]; first compound 8 µM)	relative viability ([2]; first compound 0.08 µM)	relative viability ([2]; first compound 0.8 µM)	relative viability ([2]; first compound 2.53 µM)	relative viability ([2]; first compound 8 µM)	relative viability ([3]; first compound 0.08 µM)	relative viability ([3]; first compound 0.8 µM)	relative viability ([3]; first compound 2.53 µM)	relative viability ([3]; first compound 8 µM)	relative viability ([4]; first compound 0.08 µM)	relative viability ([4]; first compound 0.8 µM)	relative viability ([4]; first compound 2.53 µM)	relative viability ([4]; first compound 8 µM)	relative viability (Ruboxistaurin + AZD7762; first compound 0.08 µM)	relative viability (Ruboxistaurin + AZD7762; first compound 0.8 µM)	relative viability (Ruboxistaurin + AZD7762; first compound 2.53 µM)	relative viability (Ruboxistaurin + AZD7762; first compound 8 µM)
201T	0.739	0.705	0.764	0.747	0.357	0.344	0.353	0.37	0.993	0.815	0.976	0.825	0.572	0.536	0.603	0.559	0.539	0.549	0.581	0.641
NCI-H3122	0.241	0.179	0.227	0.232	0.176	0.149	0.196	0.336	0.426	0.43	0.426	0.334	0.953	0.922	0.753	0.96	0.98	0.909	1.05	1.1
NCI-H727	0.361	0.395	0.384	0.367	0.596	0.688	0.745	0.707	0.69	0.463	0.579	0.536	0.474	–	0.296	0.324	0.657	0.607	0.487	0.61
NCI-H441	0.523	0.453	0.529	0.366	0.234	0.174	0.248	0.202	0.663	0.594	0.638	0.554	0.538	0.525	0.494	0.577	1.08	1.1	1.15	1.34
HOP-62	0.401	0.33	0.361	0.361	0.516	0.462	0.471	0.458	0.362	0.299	0.352	0.424	0.746	0.628	0.634	0.673	0.779	0.694	0.875	0.894
RERF-LC-KJ	0.932	0.867	0.836	0.857	1.17	0.934	1.12	0.995	0.515	0.401	0.49	0.462	0.847	0.608	0.833	0.652	1.05	1.04	0.982	1.19
LCLC-103H	0.703	0.621	0.633	0.678	0.446	0.49	0.446	0.451	0.52	0.326	0.519	0.472	0.641	0.386	0.482	0.389	0.869	0.744	0.788	0.775
NCI-H1915	0.324	0.292	0.303	0.285	0.542	0.482	0.536	0.421	0.456	0.397	0.396	0.375	0.308	0.286	0.267	0.224	0.705	0.62	0.716	0.689
ChaGo-K-1	0.972	0.814	0.941	0.956	0.898	0.889	0.933	0.98	0.225	0.242	0.231	0.211	0.564	0.611	0.636	0.478	0.86	0.856	0.908	0.911
PC-14	1.05	0.667	0.73	0.527	0.603	0.452	0.51	0.528	0.596	0.518	0.546	0.532	0.269	0.221	0.281	0.0895	0.391	0.33	0.346	0.439
NCI-H1437	0.517	0.526	0.577	0.477	0.337	0.302	0.303	0.308	0.434	0.365	0.378	0.417	0.438	0.367	0.326	0.392	1.18	1.06	1.16	1.17
NCI-H1734	0.724	0.613	0.691	0.58	0.354	0.328	0.367	0.312	0.282	0.224	0.249	0.243	0.559	0.39	0.437	0.347	0.619	0.503	0.574	0.473
LK-2	0.65	0.933	0.85	0.589	0.768	0.726	0.75	0.74	0.174	0.152	0.179	0.162	0.283	0.237	0.264	0.242	0.402	0.448	0.377	0.19
HCC-15	0.401	0.388	0.409	0.417	0.748	0.694	0.734	0.745	0.461	0.255	0.297	0.188	0.683	0.593	0.489	0.518	1.25	1.2	1.13	1.25
HCC-366	0.393	0.331	0.349	0.321	0.401	0.354	0.392	0.328	0.0941	0.0617	0.084	0.0522	0.564	0.526	0.624	0.52	0.187	0.284	0.27	0.178
